{"source": "paper PMC10756276", "about": "“Highly specific σ2R/TMEM97 ligand FEM-1689 alleviates neuropathic pain and inhibits the integrated stress response” (Proceedings of the National Academy of Sciences of the …, 2023)", "key": {"5HT2A": {"biological_target": "5HT2A (Homo sapiens, UniProt P28223)", "experiment": "PDSP competitive binding assay", "conditions": "10 µM test article; read-out: Ki: primary assay inhibition of radioligand binding, 5HT2A"}, "[1]": {"test_system": "p-eIF2α in mouse DRG neurons", "experiment": "p-eIF2α immunocytochemistry in cultured DRG neurons", "format": "cell-based", "conditions": "for p-eIF2α levels: ISRIB 200 nM", "method": "The ICC protocol was based on a previously published protocol ([76]). […] Cells were blocked with 10% normal goat serum (NGS) in PBS-triton X (0.1%). […] Antibodies were incubated at 4 °C overnight. […] It was washed with PBS twice. […] Images were analyzed using Olympus CellSens. […] Number of cells analyzed are detailed in SI Appendix, Tables S3 and S4. […]\nT his BSA gradient containing the cells was centrifuged at 900g for 5 min at room temperatur e.\nThe pellet containing the cells was resuspended in Br ainPhys media (STEMCell #05790) containing 2% […]\n1% Gluta Max (Gibco # 350 5 0061). Hu man DRG ne uron s were plated a nd grown o n glass coverslips coate d with po ly-D-lysine (Sigma #P7405). C ultured D RG neurons were plated for 24 hours before being treated.\nMethylglyoxal (Sigma- Aldrich #M0252) and F EM- 1689 were serially diluted in media.\nMouse samples - DRG cultures […]\nanesthesia and decapitated. […]\nsection above with minor differences.\nMouse DRG neurons were grown in\nSAS-0132 and DKR-1677 were […]\ndissolved in 100% DMSO to a final concentr ation of 200mM and stored at - 20 °C. and DKR-1677 were serially diluted in media. Untreated media was completely replaced with media containing each compound. […]\nSlides were […]\nincubated with 1:2 diluted hydrogen peroxide in distilled water for 10 min at r oom temper ature and washed twice in distilled water. The protease IV was applied to each section and incubated for 5 min at room temperature. Slides were w ashed twice in 1X PBS and RNA scope was performed immediately. A mixture of probes - Tmem97, Scn10a, and Fabp7 – was hybridized for 2 hours at 40 °C in a humidity control tray"}, "BZP Rat Brain": {"biological_target": "BZP Rat Brain", "experiment": "PDSP competitive binding assay"}, "Alpha2b": {"biological_target": "T1, Alpha2b (Homo sapiens, UniProt P18089)", "T1 construct": "purchased NIMH Psychoactive Drug Screening Program (PDSP), University of North Carolina at Chapel Hill", "experiment": "PDSP competitive binding assay", "conditions": "10 µM test article; read-out: Ki: primary assay inhibition of radioligand binding, Alpha2b"}, "D5": {"biological_target": "D5 (Homo sapiens, UniProt P21918)", "sequence (P21918 whole entry)": "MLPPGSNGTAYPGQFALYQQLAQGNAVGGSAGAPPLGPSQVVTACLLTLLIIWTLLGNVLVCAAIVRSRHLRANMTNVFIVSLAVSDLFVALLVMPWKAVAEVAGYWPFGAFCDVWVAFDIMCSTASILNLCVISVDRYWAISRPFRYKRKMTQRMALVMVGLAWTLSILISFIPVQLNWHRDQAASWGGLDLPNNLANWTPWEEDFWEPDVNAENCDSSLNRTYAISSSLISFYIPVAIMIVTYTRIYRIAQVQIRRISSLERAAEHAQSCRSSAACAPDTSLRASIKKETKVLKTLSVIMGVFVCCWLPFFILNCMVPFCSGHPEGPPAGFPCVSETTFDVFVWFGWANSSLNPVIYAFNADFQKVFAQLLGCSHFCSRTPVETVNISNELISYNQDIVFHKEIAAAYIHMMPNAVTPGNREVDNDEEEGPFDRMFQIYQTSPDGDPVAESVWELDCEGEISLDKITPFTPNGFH", "experiment": "PDSP competitive binding assay", "conditions": "10 µM test article; read-out: Ki: primary assay inhibition of radioligand binding, D5"}, "D2": {"biological_target": "D2 (Homo sapiens, UniProt P14416)", "sequence (P14416 whole entry)": "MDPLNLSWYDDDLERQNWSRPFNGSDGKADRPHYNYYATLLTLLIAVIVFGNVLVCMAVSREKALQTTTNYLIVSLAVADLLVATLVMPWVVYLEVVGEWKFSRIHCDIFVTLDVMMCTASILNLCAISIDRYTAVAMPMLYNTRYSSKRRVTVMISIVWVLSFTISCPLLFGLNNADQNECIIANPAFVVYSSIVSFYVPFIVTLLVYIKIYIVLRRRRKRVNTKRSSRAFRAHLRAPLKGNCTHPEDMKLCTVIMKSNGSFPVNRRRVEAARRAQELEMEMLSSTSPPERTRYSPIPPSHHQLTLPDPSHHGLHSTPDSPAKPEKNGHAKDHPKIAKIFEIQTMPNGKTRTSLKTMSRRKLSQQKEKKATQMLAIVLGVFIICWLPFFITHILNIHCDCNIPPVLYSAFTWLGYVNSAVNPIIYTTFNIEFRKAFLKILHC", "experiment": "PDSP competitive binding assay", "conditions": "10 µM test article; read-out: Ki: primary assay inhibition of radioligand binding, D2"}, "D4": {"biological_target": "D4 (Homo sapiens, UniProt P21917)", "sequence (P21917 whole entry)": "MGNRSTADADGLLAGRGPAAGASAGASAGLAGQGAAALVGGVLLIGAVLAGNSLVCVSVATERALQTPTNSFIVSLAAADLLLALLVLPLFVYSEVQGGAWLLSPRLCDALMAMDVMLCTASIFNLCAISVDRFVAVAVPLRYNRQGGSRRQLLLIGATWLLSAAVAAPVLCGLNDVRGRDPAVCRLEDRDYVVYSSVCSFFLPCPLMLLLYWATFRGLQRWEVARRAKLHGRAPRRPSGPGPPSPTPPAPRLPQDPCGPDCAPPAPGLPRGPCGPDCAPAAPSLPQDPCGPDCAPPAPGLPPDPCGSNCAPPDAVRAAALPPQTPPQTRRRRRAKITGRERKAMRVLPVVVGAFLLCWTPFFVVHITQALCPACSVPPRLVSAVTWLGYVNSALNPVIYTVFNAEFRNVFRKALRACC", "experiment": "PDSP competitive binding assay", "conditions": "10 µM test article; read-out: Ki: primary assay inhibition of radioligand binding, D4"}, "H4": {"biological_target": "H4 (Homo sapiens, UniProt Q9H3N8)", "sequence (Q9H3N8 whole entry)": "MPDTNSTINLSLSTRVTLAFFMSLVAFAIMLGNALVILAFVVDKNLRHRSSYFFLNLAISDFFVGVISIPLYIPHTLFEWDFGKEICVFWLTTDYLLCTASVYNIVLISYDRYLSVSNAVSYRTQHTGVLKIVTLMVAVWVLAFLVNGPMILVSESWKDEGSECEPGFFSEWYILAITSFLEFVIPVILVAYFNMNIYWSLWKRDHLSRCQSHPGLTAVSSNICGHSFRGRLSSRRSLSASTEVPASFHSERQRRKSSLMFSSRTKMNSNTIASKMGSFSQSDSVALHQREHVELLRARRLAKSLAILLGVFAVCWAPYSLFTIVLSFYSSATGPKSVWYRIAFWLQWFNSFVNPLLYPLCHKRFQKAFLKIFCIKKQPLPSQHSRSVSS", "experiment": "PDSP competitive binding assay"}, "Alpha2a": {"biological_target": "T2, Alpha2a (Homo sapiens, UniProt P08913)", "T2 construct": "purchased NIMH Psychoactive Drug Screening Program (PDSP), University of North Carolina at Chapel Hill", "experiment": "PDSP competitive binding assay", "conditions": "10 µM test article; read-out: Ki: primary assay inhibition of radioligand binding, Alpha2a"}, "5HT1e": {"biological_target": "5HT1e (Homo sapiens, UniProt P28566)", "experiment": "PDSP competitive binding assay", "conditions": "10 µM test article; read-out: Ki: primary assay inhibition of radioligand binding, 5HT1e"}, "MOR": {"biological_target": "MOR (Homo sapiens, UniProt P35372)", "sequence (P35372 whole entry)": "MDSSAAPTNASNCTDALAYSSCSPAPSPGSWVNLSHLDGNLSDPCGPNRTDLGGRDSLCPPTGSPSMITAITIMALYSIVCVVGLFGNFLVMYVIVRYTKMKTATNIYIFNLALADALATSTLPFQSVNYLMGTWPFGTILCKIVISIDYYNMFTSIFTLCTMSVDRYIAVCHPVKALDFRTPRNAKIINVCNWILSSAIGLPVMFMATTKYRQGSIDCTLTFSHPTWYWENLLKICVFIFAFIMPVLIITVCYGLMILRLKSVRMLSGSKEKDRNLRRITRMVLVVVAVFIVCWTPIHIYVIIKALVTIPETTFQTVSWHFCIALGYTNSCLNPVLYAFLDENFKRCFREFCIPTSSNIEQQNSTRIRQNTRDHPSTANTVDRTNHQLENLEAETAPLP", "experiment": "PDSP competitive binding assay", "conditions": "10 µM test article; read-out: Ki: primary assay inhibition of radioligand binding, MOR"}, "σ1R": {"biological_target": "σ1R (Homo sapiens, UniProt Q99720)", "sequence (Q99720 whole entry)": "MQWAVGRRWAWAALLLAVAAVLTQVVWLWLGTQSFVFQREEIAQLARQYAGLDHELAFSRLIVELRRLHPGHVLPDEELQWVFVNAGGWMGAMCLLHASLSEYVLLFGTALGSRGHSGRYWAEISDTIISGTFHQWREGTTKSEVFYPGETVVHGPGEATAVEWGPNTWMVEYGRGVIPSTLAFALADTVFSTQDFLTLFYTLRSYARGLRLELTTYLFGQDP", "experiment": "Competition binding with [3H]-(+)-pentazocine (NIMH PDSP)"}, "5HT1A": {"biological_target": "T3, 5HT1A (Homo sapiens, UniProt P08908)", "T3 construct": "purchased NIMH Psychoactive Drug Screening Program (PDSP), University of North Carolina at Chapel Hill", "experiment": "PDSP competitive binding assay", "conditions": "10 µM test article; read-out: Ki: primary assay inhibition of radioligand binding, 5HT1A"}, "NET": {"biological_target": "NET (Homo sapiens, UniProt P23975)", "sequence (P23975 whole entry)": "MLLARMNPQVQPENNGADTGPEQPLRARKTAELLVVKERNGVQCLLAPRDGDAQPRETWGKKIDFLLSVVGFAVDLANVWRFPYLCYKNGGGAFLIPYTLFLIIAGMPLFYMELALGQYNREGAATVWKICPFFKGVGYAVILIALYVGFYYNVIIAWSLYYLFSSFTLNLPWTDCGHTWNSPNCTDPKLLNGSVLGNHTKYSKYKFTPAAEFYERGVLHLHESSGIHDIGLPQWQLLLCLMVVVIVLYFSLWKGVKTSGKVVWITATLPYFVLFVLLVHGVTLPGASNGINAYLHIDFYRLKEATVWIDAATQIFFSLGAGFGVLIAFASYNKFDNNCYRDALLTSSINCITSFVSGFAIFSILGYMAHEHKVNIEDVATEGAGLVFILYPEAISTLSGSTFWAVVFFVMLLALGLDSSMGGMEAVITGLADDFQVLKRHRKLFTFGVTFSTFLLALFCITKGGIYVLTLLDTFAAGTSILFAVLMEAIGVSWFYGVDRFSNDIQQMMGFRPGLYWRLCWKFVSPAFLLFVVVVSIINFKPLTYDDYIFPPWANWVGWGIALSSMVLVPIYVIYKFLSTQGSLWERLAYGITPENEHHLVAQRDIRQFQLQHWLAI", "experiment": "PDSP competitive binding assay"}, "H1": {"biological_target": "T4, H1 (Homo sapiens, UniProt P35367)", "T4 construct": "purchased NIMH Psychoactive Drug Screening Program (PDSP), University of North Carolina at Chapel Hill", "T4 sequence (P35367 whole entry)": "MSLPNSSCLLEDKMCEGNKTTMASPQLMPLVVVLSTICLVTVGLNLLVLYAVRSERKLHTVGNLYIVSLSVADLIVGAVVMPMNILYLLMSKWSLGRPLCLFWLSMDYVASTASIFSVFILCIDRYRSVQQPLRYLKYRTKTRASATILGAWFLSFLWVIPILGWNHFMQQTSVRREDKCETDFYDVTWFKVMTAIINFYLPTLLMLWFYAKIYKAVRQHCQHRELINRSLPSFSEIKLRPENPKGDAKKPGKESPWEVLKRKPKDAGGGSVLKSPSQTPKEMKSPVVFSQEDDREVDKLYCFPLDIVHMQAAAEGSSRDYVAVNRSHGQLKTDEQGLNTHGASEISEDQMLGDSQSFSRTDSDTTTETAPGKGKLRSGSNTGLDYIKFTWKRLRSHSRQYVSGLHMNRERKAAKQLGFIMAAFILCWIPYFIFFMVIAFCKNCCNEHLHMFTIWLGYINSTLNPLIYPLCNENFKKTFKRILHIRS", "experiment": "PDSP competitive binding assay", "conditions": "10 µM test article; read-out: Ki: primary assay inhibition of radioligand binding, H1"}, "M3": {"biological_target": "T5, M3 (Homo sapiens, UniProt P20309)", "T5 construct": "purchased NIMH Psychoactive Drug Screening Program (PDSP), University of North Carolina at Chapel Hill", "T5 sequence (P20309 whole entry)": "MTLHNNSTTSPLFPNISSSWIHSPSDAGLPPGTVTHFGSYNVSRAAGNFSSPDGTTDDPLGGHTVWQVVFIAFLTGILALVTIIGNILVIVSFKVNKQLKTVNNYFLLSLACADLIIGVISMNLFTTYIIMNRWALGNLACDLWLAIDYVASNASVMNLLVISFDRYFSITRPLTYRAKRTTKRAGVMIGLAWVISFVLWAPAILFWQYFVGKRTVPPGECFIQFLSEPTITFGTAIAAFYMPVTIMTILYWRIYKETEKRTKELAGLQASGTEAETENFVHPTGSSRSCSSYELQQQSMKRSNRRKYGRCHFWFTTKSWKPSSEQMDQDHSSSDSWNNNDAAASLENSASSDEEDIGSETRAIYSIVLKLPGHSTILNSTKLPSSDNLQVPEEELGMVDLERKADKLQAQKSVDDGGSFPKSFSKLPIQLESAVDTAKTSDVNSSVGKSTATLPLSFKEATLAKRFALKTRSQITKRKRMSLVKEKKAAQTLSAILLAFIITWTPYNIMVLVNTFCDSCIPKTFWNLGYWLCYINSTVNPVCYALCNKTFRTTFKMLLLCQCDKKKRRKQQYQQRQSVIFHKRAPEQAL", "experiment": "PDSP competitive binding assay", "conditions": "10 µM test article; read-out: Ki: primary assay inhibition of radioligand binding, M3"}, "Beta 3": {"biological_target": "T6, Beta 3 (Homo sapiens, UniProt P13945)", "T6 construct": "purchased NIMH Psychoactive Drug Screening Program (PDSP), University of North Carolina at Chapel Hill", "T6 sequence (P13945 whole entry)": "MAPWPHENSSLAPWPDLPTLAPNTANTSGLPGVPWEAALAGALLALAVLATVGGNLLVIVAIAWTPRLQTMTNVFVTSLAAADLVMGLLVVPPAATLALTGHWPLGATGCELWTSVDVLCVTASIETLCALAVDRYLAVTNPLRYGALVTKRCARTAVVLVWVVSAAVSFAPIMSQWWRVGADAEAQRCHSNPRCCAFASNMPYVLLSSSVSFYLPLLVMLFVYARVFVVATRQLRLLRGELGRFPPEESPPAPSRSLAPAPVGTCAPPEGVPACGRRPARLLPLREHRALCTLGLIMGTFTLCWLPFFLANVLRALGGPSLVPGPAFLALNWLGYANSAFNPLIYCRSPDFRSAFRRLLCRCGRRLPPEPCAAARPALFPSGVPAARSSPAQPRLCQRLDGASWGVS", "experiment": "PDSP competitive binding assay", "conditions": "10 µM test article; read-out: Ki: primary assay inhibition of radioligand binding, Beta 3"}, "M4": {"biological_target": "T7, M4 (Homo sapiens, UniProt P08173)", "T7 construct": "purchased NIMH Psychoactive Drug Screening Program (PDSP), University of North Carolina at Chapel Hill", "experiment": "PDSP competitive binding assay", "conditions": "10 µM test article; read-out: Ki: primary assay inhibition of radioligand binding, M4"}, "M2": {"biological_target": "M2 (Homo sapiens, UniProt P08172)", "experiment": "PDSP competitive binding assay", "conditions": "10 µM test article; read-out: Ki: primary assay inhibition of radioligand binding, M2"}, "5HT5a": {"biological_target": "T8, 5HT5a (Homo sapiens, UniProt P47898)", "T8 construct": "purchased NIMH Psychoactive Drug Screening Program (PDSP), University of North Carolina at Chapel Hill", "experiment": "PDSP competitive binding assay", "conditions": "10 µM test article; read-out: Ki: primary assay inhibition of radioligand binding, 5HT5a"}, "Beta1": {"biological_target": "T9, Beta1 (Homo sapiens, UniProt P08588)", "T9 construct": "purchased NIMH Psychoactive Drug Screening Program (PDSP), University of North Carolina at Chapel Hill", "T9 sequence (P08588 whole entry)": "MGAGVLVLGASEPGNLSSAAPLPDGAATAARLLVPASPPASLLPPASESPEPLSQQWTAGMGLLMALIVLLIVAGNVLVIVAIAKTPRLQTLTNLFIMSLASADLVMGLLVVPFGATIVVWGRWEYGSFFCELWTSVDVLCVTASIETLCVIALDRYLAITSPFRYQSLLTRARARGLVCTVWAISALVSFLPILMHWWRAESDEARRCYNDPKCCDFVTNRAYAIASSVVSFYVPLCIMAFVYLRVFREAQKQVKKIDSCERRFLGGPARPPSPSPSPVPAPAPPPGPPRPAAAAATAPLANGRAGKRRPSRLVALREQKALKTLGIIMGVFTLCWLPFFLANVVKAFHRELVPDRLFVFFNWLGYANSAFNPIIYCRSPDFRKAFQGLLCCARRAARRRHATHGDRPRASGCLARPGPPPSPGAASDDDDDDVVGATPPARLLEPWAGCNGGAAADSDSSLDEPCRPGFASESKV", "experiment": "PDSP competitive binding assay", "conditions": "10 µM test article; read-out: Ki: primary assay inhibition of radioligand binding, Beta1"}, "[2]": {"conditions": "dose response curve, given as LogKi with negative sign"}}, "note": "Like-named read-outs stand apart in the source and are kept apart here.", "data": [{"smiles": "OCCCN1CC[C@@H]2C[C@H]1c1cc(-c3ccc(C(F)(F)F)cc3)ccc12", "note": "[FEM-1689]", "values": [{"measurement": "inhibition at 10 µM", "setting": "5HT2A", "value": "< 50", "unit": "%"}, {"measurement": "treatment time of maximal effect on p-eIF2α", "setting": "[1]; 100 nM, wild-type mouse DRG neurons", "value": 16, "unit": "h"}, {"measurement": "half-life (t1/2) at reducing p-eIF2α levels in vitro", "setting": "[1]; 100 nM, wild-type mouse DRG neurons, 0.5-16 h", "value": 5.0, "unit": "h"}, {"measurement": "IC50", "setting": "[1]; DRG neuron, wild-type mouse DRG neurons, 16 h", "value": 30, "unit": "nM"}, {"measurement": "p-eIF2α levels", "setting": "[1]; TMEM97KO mouse DRG neurons, 16 h", "value": "did not respond"}, {"measurement": "p-eIF2α levels", "setting": "[1]; wild-type mouse DRG neurons, 16 h", "value": "reduced p-eIF2α levels"}, {"measurement": "concentration of maximal ISR inhibition (p-eIF2α)", "setting": "[1]; wild-type mouse DRG neurons, 16 h, comparable to ISRIB 200 nM", "value": 100, "unit": "nM"}, {"measurement": "LogKi, BZP Rat Brain", "setting": "BZP Rat Brain; [2]", "value": -5.18}, {"measurement": "Ki", "setting": "BZP Rat Brain; dose response curve, read-out: Ki, BZP Rat Brain", "value": 6590, "unit": "nM"}, {"measurement": "Ki", "setting": "BZP Rat Brain; single determination, read-out: BZP Rat Brain Ki", "value": 6600, "unit": "nM"}, {"measurement": "inhibition at 10 µM", "setting": "Alpha2b", "value": "< 50", "unit": "%"}, {"measurement": "inhibition at 10 µM", "setting": "D5", "value": "< 50", "unit": "%"}, {"measurement": "inhibition at 10 µM", "setting": "D2", "value": "< 50", "unit": "%"}, {"measurement": "inhibition at 10 µM", "setting": "D4", "value": "< 50", "unit": "%"}, {"measurement": "LogKi, H4", "setting": "H4; [2]", "value": -5.26}, {"measurement": "Ki", "setting": "H4; read-out: H4 Ki, single determination", "value": 5510, "unit": "nM"}, {"measurement": "Ki", "setting": "H4; read-out: Ki, H4, dose response curve", "value": 5510, "unit": "nM"}, {"measurement": "inhibition at 10 µM", "setting": "Alpha2a", "value": "< 50", "unit": "%"}, {"measurement": "inhibition at 10 µM", "setting": "5HT1e", "value": "< 50", "unit": "%"}, {"measurement": "inhibition at 10 µM", "setting": "MOR", "value": "< 50", "unit": "%"}, {"measurement": "Ki", "setting": "σ1R", "value": 206, "unit": "nM"}, {"measurement": "selectivity for σ2R/TMEM97 vs σ1R", "setting": "σ1R; ratio of Ki", "value": 10, "unit": "fold"}, {"measurement": "Ki", "setting": "σ1R; read-out: σ1R Ki, averages ± SD", "value": "167 ± 54", "unit": "nM"}, {"measurement": "inhibition at 10 µM", "setting": "5HT1A", "value": "< 50", "unit": "%"}, {"measurement": "Ki", "setting": "NET; Ki, NET, Run 1", "value": 668, "unit": "nM"}, {"measurement": "Ki", "setting": "NET; Ki, NET, Run 2", "value": 221, "unit": "nM"}, {"measurement": "Ki", "setting": "NET; Ki, NET, Run 3", "value": 209, "unit": "nM"}, {"measurement": "Ki", "setting": "NET; Ki, NET, Run 4", "value": 519, "unit": "nM"}, {"measurement": "selectivity for σ2R/TMEM97 vs NET", "setting": "NET; ratio of Ki", "value": 24, "unit": "fold"}, {"measurement": "Ki", "setting": "NET; read-out: NET Ki, average of four Ki determinations", "value": "405 ± 227", "unit": "nM"}, {"measurement": "inhibition at 10 µM", "setting": "H1", "value": "< 50", "unit": "%"}, {"measurement": "inhibition at 10 µM", "setting": "M3", "value": "< 50", "unit": "%"}, {"measurement": "inhibition at 10 µM", "setting": "Beta 3", "value": "< 50", "unit": "%"}, {"measurement": "inhibition at 10 µM", "setting": "M4", "value": "< 50", "unit": "%"}, {"measurement": "inhibition at 10 µM", "setting": "M2", "value": "< 50", "unit": "%"}, {"measurement": "inhibition at 10 µM", "setting": "5HT5a", "value": "< 50", "unit": "%"}, {"measurement": "inhibition at 10 µM", "setting": "Beta1", "value": "< 50", "unit": "%"}]}]}
